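How tested: cells in 96-well plates exposed to compound for 48 hours at five concentrations. Here, GI50 denotes the concentration required for 50% inhibition of growth.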 Calls of active or inactive are those of the source. No stated cut-off is given here; in the data, active = GI50 up to about 1.1 µM and inactive = higher.
Key:
Assay in all cases: growth of human tumour cells (NCI), 48 h
EKVX = system: EKVX
HL-60 = system: HL-60
HOP-92 = system: HOP-92
KM12 = system: KM12
LOX IMVI = system: LOX IMVI
M14 = system: M14
MCF7 = system: MCF7
MDA-MB-231 = system: MDA-MB-231
MDA-MB-435 = system: MDA-MB-435
NCI-H226 = system: NCI-H226
NCI-H23 = system: NCI-H23
NCI-H460 = system: NCI-H460
NCI-H522 = system: NCI-H522
OVCAR-3 = system: OVCAR-3
OVCAR-5 = system: OVCAR-5
SK-MEL-5 = system: SK-MEL-5
SN12C = system: SN12C
SR = system: SR
T47D = system: T47D
U-251 = system: U-251

Structure (SMILES)	GI50 (EKVX)	GI50 (HL-60)	GI50 (HOP-92)	GI50 (KM12)	GI50 (LOX IMVI)	GI50 (M14)	GI50 (MCF7)	GI50 (MDA-MB-231)	GI50 (MDA-MB-435)	GI50 (NCI-H226)	GI50 (NCI-H23)	GI50 (NCI-H460)	GI50 (NCI-H522)	GI50 (OVCAR-3)	GI50 (OVCAR-5)	GI50 (SK-MEL-5)	GI50 (SN12C)	GI50 (SR)	GI50 (T47D)	GI50 (U-251)
CCN(CC)CCn1ncc2ccc3c(c(=O)c4cccnc4n3CCN(CC)CC)c21	1.29 µM (inactive)	1.09 µM (active)	1.38 µM (inactive)	0.603 µM (active)	0.521 µM (active)	1.41 µM (inactive)	0.618 µM (active)	1.67 µM (inactive)	0.655 µM (active)	1.7 µM (inactive)	1.29 µM (inactive)	0.403 µM (active)	0.845 µM (active)	1.13 µM (inactive)	1.09 µM (active)	1.09 µM (active)	0.621 µM (active)	0.284 µM (active)	2.28 µM (inactive)	0.597 µM (active)
FC(F)(F)c1ccc2c(c1)nc(Cc1ccccc1)n2C[C@@H]1CCCN2CCCCC12 (stereo not given in full)	8.47 µM (inactive)	1.59 µM (inactive)	8.85 µM (inactive)	15.8 µM (inactive)	15.1 µM (inactive)	10.6 µM (inactive)	14.1 µM (inactive)	14.2 µM (inactive)	14.9 µM (inactive)	19.2 µM (inactive)	14.6 µM (inactive)	15.2 µM (inactive)	14 µM (inactive)	14.8 µM (inactive)	16.1 µM (inactive)	14.4 µM (inactive)	13.1 µM (inactive)	10.1 µM (inactive)	14.4 µM (inactive)	15.7 µM (inactive)
O=C(Nc1ccccc1)N(CCCCN(Cc1ccccc1)C(=O)Nc1ccccc1)Cc1ccccc1	72.3 µM (inactive)	> 100 µM (inactive)	> 100 µM (inactive)	> 100 µM (inactive)	> 100 µM (inactive)	> 100 µM (inactive)	92 µM (inactive)	48.6 µM (inactive)	> 100 µM (inactive)	> 100 µM (inactive)	> 100 µM (inactive)	> 100 µM (inactive)	95.3 µM (inactive)	> 100 µM (inactive)	> 100 µM (inactive)	> 100 µM (inactive)	> 100 µM (inactive)	44.3 µM (inactive)	25.9 µM (inactive)	> 100 µM (inactive)
c1ccc2c(c1)CCc1[nH]c3c(c1-2)-c1ccccc1CC3	> 100 µM (inactive)	27.9 µM (inactive)	> 100 µM (inactive)	48.2 µM (inactive)	42.6 µM (inactive)	35 µM (inactive)	39.9 µM (inactive)	33.2 µM (inactive)	74.6 µM (inactive)	61.8 µM (inactive)	> 100 µM (inactive)	39.9 µM (inactive)	96.4 µM (inactive)	91.4 µM (inactive)	> 100 µM (inactive)	> 100 µM (inactive)	> 100 µM (inactive)	38.7 µM (inactive)	90.2 µM (inactive)	> 100 µM (inactive)
COc1ccc(/N=c2\ssc(C(=S)Nc3ccc(OC)cc3)c2S)cc1	> 100 µM (inactive)	36.3 µM (inactive)	> 100 µM (inactive)	> 100 µM (inactive)	> 100 µM (inactive)	71 µM (inactive)	69 µM (inactive)	> 100 µM (inactive)	> 100 µM (inactive)	> 100 µM (inactive)	> 100 µM (inactive)	39.6 µM (inactive)	> 100 µM (inactive)	> 100 µM (inactive)	> 100 µM (inactive)	> 100 µM (inactive)	> 100 µM (inactive)	> 100 µM (inactive)	> 100 µM (inactive)	75.7 µM (inactive)
Oc1nnnc2c1sc1ncccc12	63.1 µM (inactive)	> 100 µM (inactive)	47.8 µM (inactive)	> 100 µM (inactive)	> 100 µM (inactive)	> 100 µM (inactive)	> 100 µM (inactive)	68.2 µM (inactive)	> 100 µM (inactive)	> 100 µM (inactive)	> 100 µM (inactive)	> 100 µM (inactive)	> 100 µM (inactive)	> 100 µM (inactive)	> 100 µM (inactive)	> 100 µM (inactive)	> 100 µM (inactive)	5.7 µM (inactive)	> 100 µM (inactive)	> 100 µM (inactive)
C/C=C(\C)C(=O)OC1/C=C(\C)CC/C=C(\C)CC2OC(=O)C(C)(OC(C)=O)C12 (stereo not given)	> 100 µM (inactive)	59.7 µM (inactive)	> 100 µM (inactive)	> 100 µM (inactive)	> 100 µM (inactive)	> 100 µM (inactive)	> 100 µM (inactive)	> 100 µM (inactive)	> 100 µM (inactive)	> 100 µM (inactive)	> 100 µM (inactive)	> 100 µM (inactive)	> 100 µM (inactive)	> 100 µM (inactive)	> 100 µM (inactive)	> 100 µM (inactive)	> 100 µM (inactive)	> 100 µM (inactive)	> 100 µM (inactive)	> 100 µM (inactive)
C[C@]12C=CC(=O)C=C1CC[C@@H]1[C@@H]2CC[C@]2(C)OC(=O)CC[C@@H]12 [TESTOLACTONE]	318 µM (inactive)	310 µM (inactive)	402 µM (inactive)	> 500 µM (inactive)	> 492 µM (inactive)	> 500 µM (inactive)	457 µM (inactive)	327 µM (inactive)	> 500 µM (inactive)	417 µM (inactive)	> 491 µM (inactive)	484 µM (inactive)	320 µM (inactive)	479 µM (inactive)	> 489 µM (inactive)	429 µM (inactive)	495 µM (inactive)	318 µM (inactive)	> 337 µM (inactive)	> 500 µM (inactive)

From ChEMBL document CHEMBL1201862, “PubChem BioAssay data set” (2004)
